# Results: patent US20150216779A1, “COMPOSITIONS FOR TARGETED ANTI-AGING THERAPY” (THE TEXAS A&M UNIVERSITY SYSTEM, priority 2012, published 2015)
# How the values were obtained:
# [1] = CoQ10 storage stability in delivery system at 30° C., HPLC; type: physicochemical; details: 8 weeks at 30° C.; dispersed in matrix of heat-stabilized lactoferrin alone and in combination with branched-chain amino acids
# Description: A delivery system containing the anti-aging agent CoQ10 is prepared as follows: A. Encapsulated-1 (CoQ10). Primary Emulsion. […] This mixture was coarsely homogenized for 3 min using a hand blender. Secondary Emulsion.
# The primary and secondary emulsions were blended at 1:1 ratio. The final emulsion system contained 0.5% Menhaden oil/Smart Blend Omega oil, 0.1% heat-stabilized lactoferrin, 0.1% CoQ10 and 0.1% high-methoxyl pectin (w/w). The zinc ion concentration after dilution became 2.4 mg/100 ml. This delivery system for CoQ10 was homogenized (72° C., 22.5 MPa), followed by pasteurization (72° C., 120 s). B. Encapsulated-2 (CoQ10). Primary Emulsion. […] This mixture was coarsely homogenized for 3 min using a hand blender. Secondary Emulsion. […] The primary and secondary emulsions were blended at 1:1 ratio. The final emulsion system contained 0.5% Menhaden oil/Smart Blend Omega oil, 0.1% heat-stabilized lactoferrin, 0.2% branched-chain amino acids, 0.1% CoQ10, and 0.1% high-methoxyl pectin (w/w). The zinc ion concentration after dilution became 2.4 mg/100 ml. This delivery system for CoQ10 was homogenized (72° C., 22.5 MPa), followed by pasteurization (72° C., 120 s). C. Unencapsulated (CoQ10). […] This mixture was homogenized (72° C., 22.5 MPa), followed by pasteurization (72° C., 120 s). […]
# [2] = Lutein photo-stability in delivery system at 21° C. under light 12 h daily, HPLC-PDA-MS/MS; type: physicochemical; details: UV and visible light 12 h daily at 21° C. over 8 weeks; dispersed in heat-stabilized lactoferrin matrix
# Description: A. Encapsulated-1 (Lutein). Primary Emulsion. […] This mixture was coarsely homogenized for 3 min using a hand blender. Secondary Emulsion.
# (§1) The primary and secondary emulsions were blended at 1:1 ratio. The final emulsion system contained 0.5% Menhaden oil/Smart Blend Omega oil, 0.1% heat-stabilized lactoferrin, 0.1% lutein, and 0.1% high-methoxyl pectin (w/w). The zinc ion concentration after dilution became 2.4 mg/100 ml. This delivery system for lutein was homogenized (72° C., 22.5 MPa), followed by pasteurization (72° C., 120 s).
# B. Encapsulated-2 (Lutein). Primary Emulsion. […] This mixture was coarsely homogenized for 3 min using a hand blender. Secondary Emulsion.
# as §1, with “lactoferrin, 0.2% branched-chain amino acids,” for “lactoferrin,”
# C. Unencapsulated (Lutein). […] This mixture was homogenized (72° C., 22.5 MPa), followed by pasteurization (72° C., 120 s).
# The samples (500 ml each) were aseptically dispensed into clean, clear 600-ml bottles made from polyethylene terephthalate (PET). […]
# [3] = O/W emulsion, menhaden oil/Smart Blend Omega oil 1:1 (0.5% w/w), entrapped within β-lactoglobulin microcarriers; 28 days of storage at 30° C.
molecule,measurement,setting,value
"COC1=C(OC)C(=O)C(C/C=C(\C)CC/C=C(\C)CC/C=C(\C)CC/C=C(\C)CC/C=C(\C)CC/C=C(\C)CC/C=C(\C)CC/C=C(\C)CC/C=C(\C)CCC=C(C)C)=C(C)C1=O [CoQ10, coenzyme Q10]",degradation of CoQ10 during storage,[1],about 30%
CC1=C[C@H](O)CC(C)(C)[C@H]1/C=C/C(C)=C/C=C/C(C)=C/C=C/C=C(C)/C=C/C=C(C)/C=C/C1=C(C)C[C@@H](O)CC1(C)C [lutein],light-sensitive degradation of xanthophyll carotenoid pigments (lutein),[2],about 70%
docohexaenoic acid [DHA],percentage of retained ω-3 fatty acid,[3],79.5%
